Entries after “also recorded” stand apart in the source; their conditions may differ.
Key:
human PBMCs = test: XTT cytotoxicity test of PBMCs transfected with LPX-formulated EPO mRNA; assay type: cell-based; conditions: 24 h, up to 1 μg/well mRNA
Protocol: Human buffy coats from healthy individuals were obtained from the Faculty of Medicine of Johannes Gutenberg University, Mainz and used to isolate peripheral blood mononuclear cells (PBMCs) on a Ficoll-Paque™ PLUS (Cytiva, Marlborough, MA, USA) density gradient. In preparation for mRNA transfection, cryopreserved PBMCs were thawed and seeded into 96-well plates at a density of 5×10^5 cells per well in 190 μL RPMI medium supplemented with 1% non-essential amino acids (NEAA), 1% sodium pyruvate and 10% Fetal Bovine Serum (Merck, Germany). Cells were maintained at 37° C. with 5% CO2 until transfection with 0.5, 1.5, 5.0 and 15 μg/ml lipoplex-formulated EPO mRNA (LPX-RNA), as described in Kranz, L. M., et al. (2016) Nature, 534, 396-401. The complexed RNA (10 μl per well) was added in triplicates and supernatants were collected at 24 h after transfection to perform single cell cytotoxicity assay and to measure the cytokine/chemokine profile. […] The levels of IL-6 (Interleukin 6), TNF-α (Tumor necrosis factor alpha), IL-1 (Interleukin 1 beta), IFN-γ (Interferon gamma), MCP-1 (Monocyte Chemoattractant Protein-1), […] (Macrophage inflammatory protein 1 beta) and IL-10 (Interleukin 10) were quantified 24 h after the mRNA transfection. […]

BALB/c mice [1] = test: Plasma EPO in mice IV injected with 3 μg TransIT-complexed EPO mRNA (ELISA); assay type: in vivo
Protocol: (§1) To confirm in vitro data, female BALB/c mice from Jackson Laboratory (Bar Harbor, ME, USA) at the age of eight to ten weeks were used for in vivo experiment in accordance with federal policies on animal research (Ethics approval number: G18-12-027). Mice (n=3/group) were injected intravenously (i.v.) with 3 μg TransIT-complexed (Mirus Bio) EPO mRNAs in a final volume of 200 μL Dulbecco's modified Eagle medium (DMEM). Mice used as controls were injected with TransIT-reagent diluted in DMEM but without RNA. Mice were injected with EPO mRNA complexed with TransIT-reagent and EPO levels in plasma were measured using ELISA (FIG. 8A). Hematocrit was measured from 18 μl of blood that was collected at the indicated times using centrifugation in Drummond microcaps glass capillary tubes (20 μl volume, Merck, Germany) as described (20) (FIG. 8B). After determination of the hematocrit, capillary tubes were snapped open, and the plasma was collected to measure EPO levels and analyzed for mouse Erythropoietin DuoSet ELISA kit (R&D Systems) according to the manufacturer's instructions. […] EPO RNA containing m1Ψ translated two-fold more than U-containing mRNA at each time points (FIG. 8A). Both compound I′-1 and compound I′-6 are suitable for translation of the encoded protein and each cap analog can be used for synthesizing of non-replicating functional mRNAs (FIG. 8A, 8B).
(§2) In each in vivo experiment in order to measure the translational efficiency and to determine the functionality of EPO mRNA capped with I′-1, I′-2, I′-3, I′-5, I′-6, I′-9, I′-12, I′-13, I′-16, CC114, and CC413 in vivo, female BALB/c mice from Jackson Laboratory (Bar Harbor, ME, USA) at the age of eight to ten weeks were used for in accordance with federal policies on animal research (Ethics approval number: G19-12-074). In each case, mice (n=3/group) were injected intravenously (i.v.) with 3 μg TransIT-complexed (Mirus Bio) EPO mRNAs in a final volume of 200 μL Dulbecco's modified Eagle medium (DMEM). Mice used as controls were injected with TransIT-reagent diluted in DMEM but without RNA. To measure hematocrits and EPO levels in the individual mice that were injected with EPO mRNA capped with I′-6, I′-1, CC114, and CC413 and complexed with TransIT-reagent, 18 μL of blood was collected at the indicated times (FIG. 8B) and centrifuged in Drummond microcaps glass capillary tubes (20 μl volume, Merck, Germany) as described (19). After determination of the hematocrit, capillary tubes were snapped open, and the plasma was collected to measure EPO levels and analyzed for mouse Erythropoietin DuoSet ELISA kit (R&D Systems) according to the manufacturer's instructions. […] EPO RNA containing m1Ψ modifications translated 2-3-fold, 5-fold, and 10-fold more than U-containing mRNAs at 6-24, 48 and 72 hours after injections, respectively. (FIG. 8A). […] To address translation of I′-6-capped mRNA in human primary hepatocytes, EPO level was measured from supernatants transfected using 0.1 μg/well TransIT-formulated I′-6- or CC114-capped uRNA (FIG. 13).
To this end, we generated U-containing as well as m1Ψ-modified EPO RNA capped with cap analogs which belong to either the non-ARCA (I′-13) or ARCA (I′-6) classes. Moreover, the latter ones contain 2′-OMe (I′-5) or 3′-OMe (I′-6) at the ribose of the m7G moiety. Three μg of TransIT-complexed EPO mRNA capped with nucleoside modification-containing NeoCaps I′-13, I′-5 and I′-6 cap analogs were injected into mice intravenously. After that EPO level of plasma collected from mice was measured at 6, 24 and 48 hours after administration to compare the translational activity of mRNA capped with NeoCaps with U-containing or m1Ψ-modified mRNA capped with non-modified ARCA 3′OMe I′-1.
Plasma EPO level of mice injected with 3 μg of each TransIT-complexed mRNA was determined using murine EPO-specific ELISA at 6, 24, 48 and 72 hours after intravenous administration. […]

BALB/c mice [2] = test: Hematocrit in mice IV injected with 3 μg TransIT-complexed EPO mRNA; assay type: in vivo
Protocol: as §1, §2

COC1C(OP(=O)(O)OC[C@H]2O[C@@H](c3cn(C)c(=O)[nH]c3=O)C(O)C2O)[C@@H](COP(=O)(O)OP(=O)([O-])OP(=O)(O)OC[C@H]2O[C@@H](n3c[n+](C)c4c(O)nc(N)nc43)C(O)C2OC)O[C@H]1n1cnc2c(N)ncnc21 (stereo partly shown) [I′-6, m^7G(^3′-OMe)pppA(2′-OMe)pm^1Ψ]
toxic effect on cell viability (XTT) (human PBMCs): no toxic effect | 24-hour EPO values compared with 6-hour values (BALB/c mice [1]; after IV injection): higher than the 6-hour values | translation (plasma EPO) relative to CC413 (BALB/c mice [1]; later time points): 2- to 3 fold | translation (EPO level) relative to I′-1 (BALB/c mice [1]; m1Ψ-modified mRNA capped with I′-6 vs U-containing mRNA capped with I′-1, each time point): 2-3 fold | translation relative to unmodified I′-1 (BALB/c mice [1]; m1Ψ-modified mRNA, 6-24 hours after administration): 2-3 fold | translation relative to unmodified I′-1 (BALB/c mice [1]; m1Ψ-modified mRNA, 48-72 hours after administration): 4-5 fold | translation / plasma EPO level relative to CC413 (BALB/c mice [1]; m1Ψ-modified mRNA, 48 and 72 h after injection, respectively): 1.5-3 fold | performance compared with cap analogs with other modification (BALB/c mice [1]; m1Ψ-modified mRNA, same capping efficiency): surpasses the performance of other cap analogs | translation of ARCA analogs compared to non-ARCA caps CC114 and I′-13 (BALB/c mice [1]; regardless of the RNA modification): significantly better | plasma EPO compared with reference samples (I′-1, CC114, CC413) (BALB/c mice [1]; regardless of the cap initiators): outperformed each reference sample | hematocrit value at 21 days compared with CC413-capped mRNA (BALB/c mice [2]; 21 days after administration): at the same level as the values of D7 and D14 | decrease of hematocrit values from D14 (BALB/c mice [2]; D14 after injection): not observed | hematocrit values (BALB/c mice [2]; up to day 21 after injection): very high and further increased after day 14; also recorded: remained very high level

— patent US20260109727A1, “RNA CONSTRUCTS AND USES THEREOF” (BioNTech SE, priority 2022, published 2026)
